In patent US9540373B2, “Substituted spirocycles” (Boehringer Ingelheim International GmbH, priority 2014, dated 2017):

Assays:
[1] = molecular target: recombinant human DPPI (Cathepsin C) (Homo sapiens (Human), UniProt P53634); experiment: Inhibition of human DPPI (Cathepsin C); type: biochemical; conditions: recombinant human DPPI, substrate Gly-Arg-AMC, pH 6.0; read-out: Inhibition of DPPI IC50
Experimental: Inhibition of Human DPPI (Cathepsin C)
The analysis of the data was performed by calculating the percentage of fluorescence in the presence of test compound in comparison to the fluorescence of the vehicle control after 20 subtracting the background fluorescence using the following formula: (RFU(sample)−RFU(background))*100/(RFU(control)−RFU(background))
Data from these calculations were used to generate IC50 values for inhibition of DPPI, respectively.

[2] = test system: neutrophil elastase activity in U937 cells; experiment: Determination of neutrophil elastase activity in U937 cytosolic lysate preparation after incubation with test compound; type: cell-based; conditions: Homo sapiens, U-937; U937 cells incubated 48 hours with compound, NE activity in lysate; read-out: Reduction of NE-activity in U937 cells IC50
Experimental: Determination of Neutrophil Elastase Activity in U937 Cytosolic Lysate Preparation after Incubation with Test Compound Materials:
24 well Nunclon cell culture plates (No. 142475) and 96 well plates (No. 267245) were from Nunc.
Dimethylsulfoxid (DMSO) was from Sigma (Prod. No. D8418). Nonidet-P40 (NP40) was from USBiological (Prod. No. N3500)
Substrate, specific for Neutrophil elastase, was from Bachem (MeOSuc-Ala-Ala-Pro-Val-AMC; Prod. No. I-1270).
Human neutrophil elastase was from Calbiochem (Prod. No. 324681)
Tris-buffer (100 mM Tris; 1M NaCl; pH 7.5)
Tris-buffer+HSA 0.1%; Human Serum Albumin from Calbiochem (Cat#. 126658)
Serine-protease buffer (20 mM Tris; 100 mM NaCl; pH 7.5)+0.1% HSA
Serine protease lysis buffer: 20 mM Tris-HCl; 100 mM NaCl pH 7.5; +0.2% Nonidet-P40;
PBS: phosphate buffered saline, without Ca and Mg, from Gibco
U937 from ECACC (Cat. No. 85011440) cultured in suspension at 37° C. and 5% CO2.
Cell density: 0.2-1 Mio. Cells/ml.
Medium: RPMI1640 GlutaMAX (No. 61870) with 10% FCS from Gibco
Cell Seeding and Treatment:
Compounds in 100% DMSO were diluted in Medium (−FCS) with 10% DMSO and further diluted according to the experiment planned.
20 μl of the compound solution was transferred in the respective wells of the 24 well plate and diluted with 2 ml cell suspension/well containing 1×10^5 cells/ml (final concentration of DMSO=0.1%). Compound dilution factor=100
Compounds (up to 7 concentrations) were tested in triplicates with 3 wells for the DMSO 0.1% control, incubated for 48 hours without medium change at 37° C., 5% CO2 and 95% relative humidity.
Cell Harvesting and Cell Lysate:
Transfer the cell suspension in 2 ml 96 well assay block. Separate cells from medium by centrifugation (500×g; 10 min; RT); discard the supernatant. Resuspend in 1 ml PBS; centrifugation (500×g; 10 min; RT); wash cells twice with PBS. Add 80 μl Serine protease lysis buffer (ice cold) to the cell pellet; resuspend the pellet and store on ice for 10 minutes. Remove debris by centrifugation at 1000×g for 10 min at 4° C. Transfer 80-100 μl lysate supernatant in 96 well plate and store immediately at −80° C.
Neutrophil Elastase Activity Assay:
Frozen lysates were thaw at 37° C. for 10 minutes and stored on ice. Protein content was determined with Bradford protein assay. Lysates were diluted to 0.2-0.5 mg/ml protein in serine protease buffer+HSA.
Standard: NE (100 μg/ml stock solution in Tris-buffer; stored at −80° C.) was diluted in Tris-buffer+HSA to 750 ng/ml, and further serially diluted 1:2 for the standard curve. Buffer, blank, standard and lysate samples were transferred into 384 well plate
Blank: 5 μl Tris-buffer+10 μl Serine protease buffer+5 μl Substrate
Standard: 5 μl Tris-buffer+10 μl NE (diff. conc.)+5 μl Substrate
Lysate: 5 μl Tris-buffer+10 μl Lysat+5 μl Substrate
The increase in fluorescence (Ex360 nm/Em 460 nm) is determined after 30 minutes with a Molecular Device Spectramax M5 Fluorescence Reader. The result is interpolated to ng/mg lysate protein using excel formula functions. Percent inhibition in the compound-treated lysate samples is calculated relative to the DMSO-treated control-sample (100−(compound-sample*100)/control-sample)
A test compound will give values between 0% and 100% inhibition of neutrophil elastase. IC50 is calculated using Graphpad Prism; nonlinear fitting (log(inhibitor) vs. response—Variable slope). The IC50 value is interpolated as the concentration of test compound which leads to a neutrophil elastase activity reduction of 50% (relative to the DMSO-treated control).

[3] = Determination of metabolic stability with human liver microsomes; type: in vitro ADME; conditions: pH 7.6; pooled human liver microsomes, 1 mg/ml protein, 1 μM compound, 37° C., NADPH; read-out: In vitro stability in human liver microsome incubations t1/2
Experimental: Determination of Metabolic Stability with Human Liver Microsomes
The metabolic degradation of the test compound is assayed at 37° C. with pooled human liver microsomes. The final incubation volume of 100 μl per time point contains TRIS buffer pH 7.6 (0.1 M), magnesium chloride (5 mM), microsomal protein (1 mg/ml) and the test compound at a final concentration of 1 μM. Following a short preincubation period at 37° C., the reactions are initiated by addition of beta-nicotinamide adenine dinucleotide phosphate, reduced form (NADPH, 1 mM) and terminated by transferring an aliquot into acetonitrile after different time points. Additionally, the NADPH-independent degradation is monitored in incubations without NADPH, terminated at the last time point. The [%] remaining test compound after NADPH independent incubation is reflected by the parameter c (control) (metabolic stability). The quenched incubations are pelleted by centrifugation (10′000 g, 5 min.) An aliquot of the supernatant is assayed by LC-MS/MS for the amount of parent compound.
The half-life (t1/2 INVITRO) is determined by the slope of the semilogarithmic plot of the concentration-time profile. The intrinsic clearance (CL_INTRINSIC) is calculated by considering the amount of protein in the incubation: CL_INTRINSIC [μl/min/mg protein]=(ln 2/(half-life [min]*protein content [mg/ml]))*1′000.

[4] = test system: neutrophil elastase activity in BALF cell lysate; experiment: Target engagement mouse model: neutrophil elastase activity in BALF cell lysate after LPS challenge; type: in vivo; conditions: female Crl:NMRI mice, 0.5 mg/kg bid for 7 days, oral, LPS inhalation challenge
Experimental: Target Engagement Mouse Model Compound Treatment:
To monitor the effect of the test compounds on neutrophil elastase activity in peripheral neutrophils, female Crl:NMRI mice were treated as follows:
Group 1 (6 animals): 0.5 mg/kg test compound in 0.5% Natrosol (pH 2-3)
Group 2 (6 animals): 0.5% Natrosol (pH 2-3)
Group 3 (2 animals): 0.5% Natrosol (pH 2-3)
Test compounds or Natrosol solution were applied on Monday to Friday at 7:00 am and 4:00 pm each day of the first week of the study and on Monday and Tuesday (7:00 am and 4:00 pm) the second week. Test compounds or Natrosol were applied orally.
LPS Challenge and Bronchioalveolar Lavage Preparation: […]
4 hours after the LPS challenge a bronchioalveolar lavage using 2×1 ml Hank's salt solution per animal was prepared from all animals and the cell numbers in the lavage fluid determined using a Sysmex XT-1800i. […]
NE activity in the BALF (bronchioalveolar lavage fluid) cell lysate was measured using the fluorescent NE substrate MeOSuc-Ala-Ala-Pro-Val-AMC (Bachem): 10 μl cell lysate were mixed with 5 μl assay buffer (20 mM Tris pH 7.5, 100 mM NaCl, 0.1% human serum albumin) and 5 μl substrate (1 mM in assay buffer) in a 384 well plate (Optiplate 384f, PerkinElmer). The reaction mixture was incubated for 60 min at room temperature and the fluorescence measured (360 nm excitation, 460 nm emission). […]

Sequence of recombinant human DPPI (Cathepsin C) (P53634 231-394): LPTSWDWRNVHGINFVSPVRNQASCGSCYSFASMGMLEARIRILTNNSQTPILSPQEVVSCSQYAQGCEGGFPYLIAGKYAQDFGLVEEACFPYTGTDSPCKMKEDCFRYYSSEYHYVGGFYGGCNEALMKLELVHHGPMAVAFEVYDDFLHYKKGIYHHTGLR
Sequence of recombinant human DPPI (Cathepsin C) (P53634 25-134): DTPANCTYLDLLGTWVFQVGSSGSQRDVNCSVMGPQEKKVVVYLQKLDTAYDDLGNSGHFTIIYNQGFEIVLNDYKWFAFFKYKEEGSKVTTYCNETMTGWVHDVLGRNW
Sequence of recombinant human DPPI (Cathepsin C) (P53634 395-463): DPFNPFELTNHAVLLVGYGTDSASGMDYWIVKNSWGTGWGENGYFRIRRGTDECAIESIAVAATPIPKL

## N#C[C@H](Cc1ccc(-c2ccc3c(n2)C2(CCN(C4COC4)CC2)OC3)cc1F)NC(=O)[C@H]1N[C@@H]2CC[C@H]1C2 [Example 25, (1S,2S,4R)—N-[(1S)-1-cyano-2-[2-fluoro-4-[1′-(oxetan-3-yl)spiro[5H-furo[3,4-b]pyridine-7,4′-piperidine]-2-yl]phenyl]ethyl]-3-azabicyclo[2.2.1]heptane-2-carboxamide]
[1]
  IC50: 1.8 nM
[2]
  IC50: 1.6 nM
[3]
  half-life at 1 μM: > 2.17 h
[4]
  Inhibition of neutrophil elastase activity in BALF lysate after the pretreatment with Cathepsin C inhibitor: 94%

## N#C[C@H](Cc1ccc(-c2ccc3c(c2)C2(CCN(C4COC4)CC2)OC3)cc1F)NC(=O)[C@H]1N[C@@H]2CC[C@H]1C2 [Example 1, (1S,2S,4R)—N-[(1S)-1-cyano-2-[2-fluoro-4-[1′-(oxetan-3-yl)spiro[1H-isobenzofuran-3,4′-piperidine]-5-yl]phenyl]ethyl]-3-azabicyclo[2.2.1]heptane-2-carboxamide]
[1]
  IC50: 1.1 nM
[2]
  IC50: 1 nM
[3]
  half-life at 1 μM: > 2.17 h
[4]
  Inhibition of neutrophil elastase activity in BALF lysate after the pretreatment with Cathepsin C inhibitor: 96%

## N#C[C@H](Cc1ccc(-c2ccc3c(c2)C2(CCN(C4COC4)CC2)OC3)cc1F)NC(=O)C12CCC(CC1)CN2 [Example 27, N-[(1S)-1-cyano-2-[2-fluoro-4-[1′-(oxetan-3-yl)spiro[1H-isobenzofuran-3,4′-piperidine]-5-yl]phenyl]ethyl]-3-azabicyclo[2.2.2]octane-4-carboxamide]
[1]
  IC50: 2.9 nM
[2]
  IC50: 0.7 nM
[3]
  half-life at 1 μM: 2 h
